Source: article PMC9909315, “SY-707, an ALK/FAK/IGF1R inhibitor, suppresses growth and metastasis of breast cancer cells” (Acta Biochimica et Biophysica Sinica, 2022)
Where two headings read alike, the source gives them in different places.

Tests used:
T47D = assay: Cell proliferation assay (CellTiter-Glo/CellTiter-Blue); format: cell-based; details: Homo sapiens, 72 h, read-out: IC50 anti-proliferation
Procedure: MCF-7, T47D, MDA-MB-231, MIA Paca-2, PANC-1, SW620, HT-29, U87MG, and A549 cell lines were purchased from the Cell Bank of Chinese Academy of Science (Shanghai, China). Cells were cultured in DMEM or RPMI-1640 (Gibco, BRL, USA) supplemented with 10% FBS (HyClone, Logan, USA) and 50 IU penicillin/streptomycin in a humidified atmosphere with 5% CO 2 at 37°C. The effects of SY-707 on cell proliferation were measured using CellTiter-Glo ® or CellTiter-Blue ® Cell Viability Assay kits (Promega, Beijing, China). In brief, cells were seeded in 96-well plates at low destiny with 195 μL of medium per well. The stock solutions of compounds were 3-fold serially diluted with DMSO from 10 mM to 0.3 nM, and 4 μL of solution at each concentration was mixed with 96 μL of serum free medium, then 5 μL of the resulted solution was added to each well. After treatment for 72 h, 25 μL of CellTiter-Glo ® reagent (for adherent cells) or 35 μL CellTiter-Blue ® reagent (for suspension cells) was added to each well, and the resulted mixture was further incubated at room temperature for 10 min or 4 h. The luminescence signals were measured using EnVision ® multilabel plate reader (PerkinElmer), and the fluorescent signals were examined using FlexStation 3 (Molecular Devices, Sunnyvale, USA), and the IC 50 values were calculated using Prism ® software (Version 5.0) and presented as the average of three independent experiments performed in duplicate.

Pharmacokinetic study = format: in vivo, SD rats; details: SD, serum, Rat, 5 mg/kg PO; for CL/F: read-out: Cl_F_obs (converted); for MRT inf: read-out: MRT INF_obs
Procedure: […] […] The serum samples were collected by centrifugation and stored at –80 °C. Compound concentrations in the sample serums were further analyzed with an API-4000 LC-MS/MS system (Applied Biosystem, Foster City, USA), and pharmacokinetic parameters ( T 1/2, T max, C max, AUC 0-INF, Cl_F_obs, MRT INF_obs, and F(%)) were calcuated using the WinNonlin software (version 6.2; WinNonlin Professional, Pharsight, USA).

Compound `COc1cc(N2CCC(N3CCN(C)CC3)CC2)ccc1Nc1nc2c(c(Nc3ccccc3S(=O)(=O)NC(C)C)n1)CCN2` [SY-707, N-isopropyl-2-((2-((2-methoxy-4-(4-(4-methylpiperazin-1-yl)piperidin-1-yl)phenyl)amino)-6,7-dihydro-5H-pyrrolo[2,3-d]pyrimidin-4-yl)amino)benzenesulfonamide] has an IC50 (T47D) of 1.8 µM, an AUC(0-inf) (Pharmacokinetic study; Female) of 8590 ng·h/mL and a Cmax (Pharmacokinetic study; Female) of 639 ng/mL. It also gave a Tmax (Pharmacokinetic study; Female) of 4.33 h, a bioavailability (Pharmacokinetic study; Female) of 33.2% and a half-life (Pharmacokinetic study; Female) of 11.2 h. It also gave a CL/F (Pharmacokinetic study; Female) of 9.77 mL/min/kg, an MRT inf (Pharmacokinetic study; Female) of 13.8 h and an AUC(0-inf) (Pharmacokinetic study; Male) of 13300 ng·h/mL. The Cmax (Pharmacokinetic study; Male) was 909 ng/mL, the Tmax (Pharmacokinetic study; Male) was 3.33 h and the bioavailability (Pharmacokinetic study; Male) was 38.3%. It also gave a half-life (Pharmacokinetic study; Male) of 13 h, a CL/F (Pharmacokinetic study; Male) of 6.3 mL/min/kg and an MRT inf (Pharmacokinetic study; Male) of 15.5 h. For the same compound, the AUC(0-inf) (Pharmacokinetic study; both sexes, All) was 11000 ng·h/mL, the Cmax (Pharmacokinetic study; both sexes, All) was 774 ng/mL and the Tmax (Pharmacokinetic study; both sexes, All) was 3.83 h. It also gave a bioavailability (Pharmacokinetic study; both sexes, All) of 36.2%, a half-life (Pharmacokinetic study; both sexes, All) of 12.1 h and a CL/F (Pharmacokinetic study; both sexes, All) of 8.03 mL/min/kg. For the same compound, the MRT inf (Pharmacokinetic study; both sexes, All) was 14.7 h.
